Values joined by “and” are separate entries in the source; they are usually repeats but may differ in a detail not shown here. Equal entries are not always repeated. Toxic doses and inconclusive results are not listed.
Tested on: P388 leukemia ip, CD2F1 mice, survival T/C
Assay: NCI In Vivo Anticancer Drug Screen. Data for tumor model P388 Leukemia (intraperitoneal) in CD2F1 (CDF1) mice
Conditions: endpoint: median survival time, higher = longer survival
How it was run: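 Mice carrying the transplanted tumor received test compound or vehicle. Survival was recorded in each group, and the value is the treated-group measurement divided by that of the vehicle-treated control group.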

[1] = dose: 12.5 mg/kg/injection, schedule: Q01DX009 (ip), vehicle: saline
[2] = dose: 25.0 mg/kg/injection, schedule: Q01DX009 (ip), vehicle: saline
[3] = dose: 50.0 mg/kg/injection, schedule: Q01DX009 (ip), vehicle: saline
[4] = dose: 50.0 mg/kg/injection, schedule: Q01DX005 (ip), vehicle: Klucel (hydroxypropylcellulose) (HPC)
[5] = dose: 100.0 mg/kg/injection, schedule: Q01DX005 (ip), vehicle: Klucel (hydroxypropylcellulose) (HPC)
[6] = dose: 50.0 mg/kg/injection, schedule: Q01DX009 (ip), vehicle: Klucel (hydroxypropylcellulose) (HPC)
[7] = dose: 100.0 mg/kg/injection, schedule: Q01DX009 (ip), vehicle: Klucel (hydroxypropylcellulose) (HPC)
[8] = dose: 200.0 mg/kg/injection, schedule: Q01DX009 (ip), vehicle: Klucel (hydroxypropylcellulose) (HPC)
[9] = dose: 100.0 mg/kg/injection, schedule: Q04DX003 (ip), vehicle: saline
[10] = dose: 200.0 mg/kg/injection, schedule: Q04DX003 (ip), vehicle: saline
[11] = dose: 50.0 mg/kg/injection, schedule: Q01DX009 (ip), vehicle: saline with Tween-80
[12] = dose: 100.0 mg/kg/injection, schedule: Q01DX009 (ip), vehicle: saline with Tween-80
[13] = dose: 200.0 mg/kg/injection, schedule: Q01DX009 (ip), vehicle: saline with Tween-80
[14] = dose: 100.0 mg/kg/injection, schedule: Q01DX001 (ip), vehicle: Klucel (hydroxypropylcellulose) (HPC)
[15] = dose: 200.0 mg/kg/injection, schedule: Q01DX001 (ip), vehicle: Klucel (hydroxypropylcellulose) (HPC)
[16] = dose: 25.0 mg/kg/injection, schedule: Q01DX009 (ip), vehicle: saline with Tween-80

CO
T/C (dose: 0.5 % in 0.5 ml injection vol, schedule: Q01DX009 (ip), vehicle: water): 105 % of control | T/C (dose: 1.0 % in 0.5 ml injection vol, schedule: Q01DX009 (ip), vehicle: water): 102 % of control | T/C (dose: 2.0 % in 0.5 ml injection vol, schedule: Q01DX009 (ip), vehicle: water): 104 % of control | T/C (dose: 4.0 % in 0.5 ml injection vol, schedule: Q01DX009 (ip), vehicle: water): 104 % of control | T/C (dose: 8.0 % in 0.5 ml injection vol, schedule: Q01DX009 (ip), vehicle: water): 100 % of control and 107 % of control | T/C (dose: 16.0 % in 0.5 ml injection vol, schedule: Q01DX009 (ip), vehicle: water): 94 % of control

CCOS(=O)(=O)c1ccc([N+](=O)[O-])cc1
T/C [1]: 95 % of control | T/C [2]: 100 % of control | T/C [3]: 98 % of control | T/C (dose: 100.0 mg/kg/injection, schedule: Q01DX009 (ip), vehicle: saline): 100 % of control and 90 % of control

CCOC(=O)N1CCN(C(=O)c2nc3ccccc3[nH]2)CC1
T/C [4]: 99 % of control | T/C [5]: 101 % of control | T/C (dose: 200.0 mg/kg/injection, schedule: Q01DX005 (ip), vehicle: Klucel (hydroxypropylcellulose) (HPC)): 95 % of control

Cc1csc2cc(Br)c3ccccc3c12
T/C (dose: 100.0 mg/kg/injection, schedule: Q01DX001 (ip), vehicle: saline with Tween-80): 101 % of control | T/C (dose: 200.0 mg/kg/injection, schedule: Q01DX001 (ip), vehicle: saline with Tween-80): 103 % of control

CSc1nc(N)c(N=O)c(N)n1
T/C (dose: 50.0 mg/kg/injection, schedule: Q04DX002 (ip), vehicle: suspension in saline): 100 % of control | T/C (dose: 100.0 mg/kg/injection, schedule: Q04DX002 (ip), vehicle: suspension in saline): 101 % of control | T/C (dose: 200.0 mg/kg/injection, schedule: Q04DX002 (ip), vehicle: suspension in saline): 104 % of control

CC1(C)OC2C(CCP(=O)(O)O)OC(c3nc(C(N)=O)cs3)C2O1 (configuration not stated)
T/C (dose: 100.0 mg/kg/injection, schedule: Q04DX003 (ip), vehicle: suspension in saline): 99 % of control | T/C (dose: 200.0 mg/kg/injection, schedule: Q04DX003 (ip), vehicle: suspension in saline): 100 % of control | T/C (dose: 400.0 mg/kg/injection, schedule: Q04DX003 (ip), vehicle: suspension in saline): 119 % of control

CN(C)c1ccc(NC(=S)Nc2ccccc2C(F)(F)F)cc1
T/C [6]: 100 % of control | T/C [7]: 100 % of control | T/C [8]: 96 % of control

CCOC(=O)CNC(=O)Nc1ccc(S(=O)(=O)Nc2nc(C)cc(C)n2)cc1
T/C [6]: 102 % of control | T/C [7]: 100 % of control | T/C [8]: 100 % of control

O=c1[nH]oc2c1CCNC2
T/C [9]: 98 % of control | T/C [10]: 103 % of control

COc1ccc(C2(C)C=C(C)C=C(C)C2=O)cc1 (configuration not stated)
T/C [11]: 100 % of control | T/C [12]: 106 % of control | T/C [13]: 100 % of control

N=C(N)c1ccc(Oc2ccc(Oc3ccc(C(=N)N)cc3)cc2)cc1
T/C (dose: 3.13 mg/kg/injection, schedule: Q01DX009 (ip), vehicle: saline with Tween-80): 109 % of control | T/C (dose: 3.13 mg/kg/injection, schedule: Q01DX009 (ip), vehicle: saline): 102 % of control | T/C (dose: 6.25 mg/kg/injection, schedule: Q01DX009 (ip), vehicle: saline with Tween-80): 109 % of control | T/C (dose: 6.25 mg/kg/injection, schedule: Q01DX009 (ip), vehicle: saline): 113 % of control | T/C (dose: 12.5 mg/kg/injection, schedule: Q01DX009 (ip), vehicle: saline with Tween-80): 124 % of control

CCO/C(C)=N\P(=O)(Oc1ccccc1)Oc1ccccc1
T/C (dose: 12.5 mg/kg/injection, schedule: Q01DX009 (ip), vehicle: distilled water + Tween-80): 105 % of control | T/C (dose: 25.0 mg/kg/injection, schedule: Q01DX009 (ip), vehicle: distilled water + Tween-80): 102 % of control | T/C (dose: 50.0 mg/kg/injection, schedule: Q01DX009 (ip), vehicle: distilled water + Tween-80): 110 % of control | T/C (dose: 100.0 mg/kg/injection, schedule: Q01DX009 (ip), vehicle: distilled water + Tween-80): 102 % of control

CC1=C(C)C(N(C)C)CS(=O)(=O)O1 (configuration not stated)
T/C [4]: 99 % of control | T/C [5]: 104 % of control

CN(C)CCCNC1C(C2COC(C)(C)O2)OC2OC(C)(C)OC21 (configuration not stated)
T/C (dose: 100.0 mg/kg/injection, schedule: Q04DX002 (ip), vehicle: saline): 97 % of control | T/C (dose: 200.0 mg/kg/injection, schedule: Q04DX002 (ip), vehicle: saline): 95 % of control | T/C (dose: 400.0 mg/kg/injection, schedule: Q04DX002 (ip), vehicle: saline): 93 % of control

CC(N=[N+]=[N-])n1nnnc1-c1ccccc1 (configuration not stated)
T/C (dose: 25.0 mg/kg/injection, schedule: Q01DX001 (ip), vehicle: Klucel (hydroxypropylcellulose) (HPC)): 101 % of control | T/C (dose: 50.0 mg/kg/injection, schedule: Q01DX001 (ip), vehicle: Klucel (hydroxypropylcellulose) (HPC)): 121 % of control | T/C [14]: 113 % of control and 120 % of control | T/C [15]: 91 % of control

CC1=CC(=O)[C@@H](O)[C@]2(C)[C@H]3[C@@]4(O)OC[C@]35[C@H]([C@@H](C)[C@H]4O)[C@@H](OC(=O)CC(C)C)C(=O)O[C@@H]5C[C@@H]12
T/C (dose: 0.5 mg/kg/injection, schedule: Q01DX005 (ip), vehicle: saline + alcohol): 104 % of control and 122 % of control | T/C (dose: 1.0 mg/kg/injection, schedule: Q01DX005 (ip), vehicle: saline + alcohol): 112 % of control

O=C(/C=C/C(=O)Oc1cc(Cl)c(Cl)cc1Cl)Oc1cc(Cl)c(Cl)cc1Cl
T/C (dose: 100.0 mg/kg/injection, schedule: Q04DX003 (ip), vehicle: saline with Tween-80): 96 % of control | T/C (dose: 200.0 mg/kg/injection, schedule: Q04DX003 (ip), vehicle: saline with Tween-80): 88 % of control | T/C (dose: 400.0 mg/kg/injection, schedule: Q04DX003 (ip), vehicle: saline with Tween-80): 97 % of control

CC(C)N=c1sc(-c2ccccc2)c(C#N)c(=O)n1C(C)C
T/C [16]: 101 % of control | T/C [11]: 103 % of control | T/C [12]: 103 % of control

O=C1CCCSc2ccccc21
T/C [16]: 100 % of control | T/C [11]: 94 % of control | T/C [12]: 102 % of control | T/C [13]: 106 % of control

COc1cc2c(cc1NC(=O)N(CCCl)N=O)-c1ccccc1C2
T/C (dose: 350.0 mg/kg/injection, schedule: Q04DX003 (ip), vehicle: Klucel (hydroxypropylcellulose) (HPC)): 163 % of control

CCNc1snc2c1c(=O)[nH]c(=O)n2Cc1ccccc1
T/C [1]: 86 % of control | T/C [2]: 90 % of control | T/C [3]: 98 % of control and 92 % of control

COc1ccc2c(=O)c(-c3ccc(OC)c(OC)c3OCc3ccccc3)coc2c1
T/C [14]: 92 % of control | T/C [15]: 96 % of control | T/C (dose: 400.0 mg/kg/injection, schedule: Q01DX001 (ip), vehicle: Klucel (hydroxypropylcellulose) (HPC)): 94 % of control

COc1cc([C@H]2OC[C@H]3[C@@H]2CO[C@@H]3c2cc(OC)c3c(c2)OCO3)cc(OC)c1OC
T/C (dose: 9.75 mg/kg/injection, schedule: Q01DX009 (ip), vehicle: saline + Tween-80 + alcohol): 93 % of control | T/C (dose: 19.5 mg/kg/injection, schedule: Q01DX009 (ip), vehicle: saline + Tween-80 + alcohol): 106 % of control | T/C (dose: 39.0 mg/kg/injection, schedule: Q01DX009 (ip), vehicle: saline + Tween-80 + alcohol): 99 % of control | T/C (dose: 78.0 mg/kg/injection, schedule: Q01DX009 (ip), vehicle: saline + Tween-80 + alcohol): 107 % of control

CC1CC(C)(C)N=C(CCC2CCCC23OCCO3)O1 (configuration not stated)
T/C [11]: 100 % of control | T/C [12]: 104 % of control | T/C (dose: 100.0 mg/kg/injection, schedule: Q04DX003 (ip), vehicle: saline sonified): 96 % of control | T/C [13]: 95 % of control | T/C (dose: 200.0 mg/kg/injection, schedule: Q04DX003 (ip), vehicle: saline sonified): 96 % of control | T/C (dose: 400.0 mg/kg/injection, schedule: Q04DX003 (ip), vehicle: saline sonified): 100 % of control

OC1COCC2N3C(=NN12)Sc1ccccc13 (configuration not stated)
T/C [9]: 105 % of control | T/C [10]: 107 % of control | T/C (dose: 400.0 mg/kg/injection, schedule: Q04DX003 (ip), vehicle: saline): 98 % of control

— PubChem BioAssay AID330 (DTP/NCI, 2004)
